Experiment: Test 4: metabolic stability test in human hepatic microsome
Assay type: in vitro ADME
Conditions: 0.1 mg/mL microsome, 0.1 μmol/L compound, NADPH, 37° C., 30 minutes
Protocol: Test 4: Metabolic Stability Test in Human Hepatic Microsome
The stability of the present compound in human hepatic microsome metabolism was evaluated as mentioned below. Human hepatic microsome was obtained from Xenontech. Human hepatic microsome, NADPH, and each test compound were mixed in 25 mmol/L phosphate buffer solution (pH 7.4) to reach the following concentrations as shown below, and the mixture was incubated at 37° C. for 30 minutes. • Human hepatic microsome: 0.1 mg/mL • NAPDH: 3.2 mmol/L • Test compound: 0.1 μmol/L
The residual ratio of the test compound in each sample after 30 minutes was measured by LC-MS, and the metabolic stability in human hepatic microsome was calculated from the following formula. Metabolic stability in human hepatic microsome (mL/min/mg protein)=−LN(residual ratio)/30/0.1

| SMILES | Metabolic stability in human hepatic microsome [mL/min/mg protein] |
| --- | --- |
| Cn1cc2c(n1)C(=O)N(CCN1CCC(c3noc4ccccc34)CC1)CCC2 [Example 48] | <0.01 |
| Cn1cc2c(n1)C(=O)N(CCN1CCN(c3nsc4ccccc34)CC1)CCC2 [Example 49] | 0.063 |
| Cn1cc2c(n1)C(=O)N(CCN1CCN(c3nsc4ccccc34)CC1)CC2 [Example 50] | 0.038 |
| Cc1nc2c(o1)CCCN(CCN1CCN(c3nsc4ccccc34)CC1)C2=O [Example 52] | 0.043 |
| O=C1c2cncnc2CCN1CCN1CCC(c2noc3ccccc23)CC1 [Example 57] | 0.013 |
| O=C1c2cncnc2CCN1CCN1CCN(c2nsc3ccccc23)CC1 [Example 58] | 0.092 |
| Cn1ccc2c1CCN(CCN1CCN(c3nsc4ccccc34)CC1)C2=O [Example 61] | 0.056 |
| Cn1ncc2c1CCN(CCN1CCN(c3nsc4ccccc34)CC1)C2=O [Example 63] | <0.01 |
| CCn1ncc2c1CCN(CCN1CCN(c3nsc4ccccc34)CC1)C2=O [Example 64] | 0.064 |
| O=C1c2cn(C3CC3)nc2CCN1CCN1CCC(c2noc3ccccc23)CC1 [Example 76] | 0.018 |
| Cn1ncc2c1CCCN(CCN1CCN(c3noc4ccccc34)CC1)C2=O [Example 80] | 0.012 |
| CC1CN(CCN2CCC(c3noc4ccccc34)CC2)C(=O)c2ccn(C)c21 (stereo not shown) [Example 82] | 0.072 |
| Cc1ncc2c(n1)CCN(CCN1CCC(c3noc4ccccc34)CC1)C2=O [Example 88, 6-{2-[4-(1,2-Benzoisoxazol-3-yl)piperidin-1-yl]ethyl}-2-methyl-7,8-dihydropyrido[4,3-d]pyrimidin-5(6H)-one] | <0.01 |
| Cc1nn(C)c2c1C(=O)N(CCN1CCC(c3noc4ccccc34)CC1)CCC2 [Example 91] | <0.05 |
| Cc1nn(C)c2c1C(=O)N(CCN1CCN(c3noc4ccccc34)CC1)CCC2 [Example 92] | 0.065 |
| O=C1c2cn[nH]c2CCCN1CCN1CCC(c2noc3ccccc23)CC1 [Example 97, 5-{2-[4-(1,2-Benzoisoxazol-3-yl)piperidin-1-yl]ethyl}-5,6,7,8-tetrahydropyrazolo[4,3-c]azepin-4(1H)-one] | <0.01 |
| [2H]C([2H])([2H])Oc1cc2c(cn1)C(=O)N(CCN1CCN(c3nsc4ccccc34)CC1)CC2([2H])[2H] [Example 107, 2-{2-[4-(1,2-Benzoisothiazol-3-yl)piperazin-1-yl]ethyl}-6-[(^2H3)methyloxy](4,4-^2H2)-3,4-dihydro-2,7-naphthyridin-1(2H)-one] | 0.210 |
| Cn1ccc2c1CCCN(CCN1CCN(c3noc4ccccc34)CC1)C2=O [Example 109, 5-{2-[4-(1,2-Benzoisoxazol-3-yl)piperazin-1-yl]ethyl}-1-methyl-5,6,7,8-tetrahydropyrrolo[3,2-c]azepin-4 (H)-one] | <0.01 |

| SMILES | Metabolic stability in human hepatic microsome [mL/min/mg protein] |
| --- | --- |
| O=c1c2cccnc2ccn1CCN1CCN(c2noc3ccccc23)CC1 [Example 115] | <0.05 |
| O=c1c2ncccc2ccn1CCN1CCN(c2noc3ccccc23)CC1 [Example 117] | <0.05 |
| O=C1c2cccnc2CCN1CCN1CCC(c2noc3cc(F)ccc23)CC1 [Example 121] | <0.05 |
| CC(CN1CCC(c2noc3cc(F)ccc23)CC1)N1CCc2cccnc2C1=O (stereo not shown) [Example 122] | <0.05 |
| O=C1c2ncccc2CCN1CCN1CCN(c2noc3cc(F)ccc23)CC1 [Example 123] | <0.05 |
| O=C1c2ncccc2CCN1CCN1CCC(c2noc3cc(F)ccc23)CC1 [Example 125] | <0.05 |
| O=C1c2occc2CCN1CCN1CCC(c2noc3ccccc23)CC1 [Example 127] | <0.05 |
| Cn1ncc2c1CCN(CCN1CCC(c3noc4ccccc34)CC1)C2=O [Example 130] | <0.05 |
| Cn1cnc2c1C(=O)N(CCN1CCC(c3noc4ccccc34)CC1)CC2 [Example 133] | <0.05 |
| Cn1cnc2c1C(=O)N(CCN1CCC(c3noc4ccccc34)CC1)CCC2 [Example 134] | <0.05 |
| Cc1cc2c(cn1)C(=O)N(CCN1CCC(c3noc4ccccc34)CC1)CC2 [Example 135] | <0.05 |
| Cc1cncc2c1CCN(CCN1CCC(c3noc4ccccc34)CC1)C2=O [Example 138] | 0.083 |
| Cc1nc(C)c2c(n1)CCN(CCN1CCC(c3noc4ccccc34)CC1)C2=O [Example 139] | <0.05 |
| O=C1c2nc(Cl)ccc2CCN1CCN1CCN(c2noc3ccccc23)CC1 [Example 144] | <0.05 |
| O=C1c2cccnc2CCN1CCN1CCN(c2noc3ccccc23)CC1 [Example 153, 6-{2-[4-(1,2-Benzoisoxazol-3-yl)piperazin-1-yl]ethyl}-7,8-dihydro-1,6-naphthyridin-5(6H)-one] | <0.05 |
| Cc1nc2c(o1)C(=O)N(CCN1CCC(c3noc4ccccc34)CC1)CCC2 [Example 154] | <0.05 |
| Cc1nc2c(o1)CCCN(CCN1CCC(c3noc4ccccc34)CC1)C2=O [Example 157] | <0.05 |

Further lines, results first:

| Metabolic stability in human hepatic microsome [mL/min/mg protein] | SMILES |
| --- | --- |
| <0.01 | Cn1cc2c(n1)CCCN(CCN1CCC(c3noc4ccccc34)CC1)C2=O [Example 41] |
| 0.100 | Cn1cc2c(n1)CCCN(CCN1CCN(c3nsc4ccccc34)CC1)C2=O [Example 42] |
| 0.04 | Cn1ncc2c1CCCN(CCN1CCN(c3nsc4ccccc34)CC1)C2=O [Example 44] |
| 0.032 | Cc1nc2c(o1)C(=O)N(CCN1CCN(c3nsc4ccccc34)CC1)CC2 [Example 45] |
| 0.018 | Cc1nc2c(o1)C(=O)N(CCN1CCN(c3nsc4ccccc34)CC1)CCC2 [Example 46] |
| 0.074 | Cc1nc2c(o1)CCN(CCN1CCN(c3nsc4ccccc34)CC1)C2=O [Example 51] |
| 0.056 | O=C1c2oc(C3CC3)nc2CCN1CCN1CCC(c2noc3ccccc23)CC1 [Example 68] |
| <0.01 | Cn1cc2c(n1)CCN(CCN1CCN(c3noc4ccccc34)CC1)C2=O [Example 81] |
| 0.046 | Cc1nccc2c1C(=O)N(CCN1CCN(c3noc4ccccc34)CC1)CC2 [Example 85] |
| 0.050 | Cc1ccc2onc(C3CCN(CCN4CCc5cccnc5C4=O)CC3)c2c1 [Example 89] |
| 0.070 | Cc1ncc2c(n1)CCN(CCN1CCN(c3nsc4ccccc34)CC1)C2=O [Example 90] |
| 0.013 | O=C1c2[nH]ncc2CCN1CCN1CCC(c2noc3ccccc23)CC1 [Example 98, 6-{2-[4-(1,2-Benzoisoxazol-3-yl)piperidin-1-yl]ethyl}-1,4,5,6-tetrahydro-7H-pyrazolo[3,4-c]pyridin-7-one] |
| <0.01 | Cc1n[nH]c2c1C(=O)N(CCN1CCC(c3noc4ccccc34)CC1)CC2 [Example 99, 5-{2-[4-(1,2-Benzoisoxazol-3-yl)piperidin-1-yl]ethyl}-3-methyl-1,5,6,7-tetrahydro-4H-pyrazolo[4,3-c]pyridin-4-one] |
| <0.01 | Cn1ccc2c1CCCN(CCN1CCC(c3noc4ccccc34)CC1)C2=O [Example 103, 5-{2-[4-(1,2-Benzoisoxazol-3-yl)piperidin-1-yl]ethyl}-1-methyl-5,6,7,8-tetrahydropyrrolo[3,2-c]azepin-4(1H)-one] |
| 0.079 | Cc1cc2ccn(CCN3CCN(c4noc5ccccc45)CC3)c(=O)c2cn1 [Example 113, 2-{2-[4-(1,2-Benzoisoxazol-3-yl)piperazin-1-yl]ethyl}-6-methyl-2,7-naphthyridin-1(2H)-one] |
| 0.1 | O=c1c2cnccc2ccn1CCN1CCN(c2noc3ccccc23)CC1 [Example 116] |
| <0.05 | O=C1c2cccnc2CCN1CCN1CCC(c2noc3ccccc23)CC1 [Example 128] |
| 0.084 | O=c1c2cncnc2ccn1CCN1CCC(c2noc3ccccc23)CC1 [Example 129] |
| <0.05 | Cn1ncc2c1CCN(CCN1CCN(c3noc4ccccc34)CC1)C2=O [Example 131] |
| <0.05 | Cn1cc2c(n1)C(=O)N(CCN1CCC(c3noc4ccccc34)CC1)CC2 [Example 156] |

Reference: patent US11466007B2, “Substituted lactams showing serotonin 5-HT receptor activity” (Sumitomo Pharma Co., Ltd., priority 2018, dated 2022)
